Measurements as given in PMC12406253, “Exploration of the Neuromodulatory Properties of Fyn and GSK-3β Kinases Exploiting 7‑Azaindole-Based Inhibitors” (Journal of Medicinal Chemistry, 2025).

Key:
[1] = target: T1, PI3 Kinase (p110α/p85α)(h) (Homo sapiens, UniProt P42336); experiment: Eurofins KinaseProfiler radiometric kinase assay; assay type: biochemical; conditions: read-out: PI3 Kinase (p110α/p85α)(h) % Residual activity
T1 construct: purchased Eurofins (Eurofins Cerep) KinaseProfiler

IRAK4(h) = target: T2, IRAK4(h) (Homo sapiens, UniProt Q9NWZ3); experiment: Eurofins KinaseProfiler radiometric kinase assay; assay type: biochemical; conditions: read-out: IRAK4(h) % Residual activity
T2 construct: purchased Eurofins KinaseProfiler (Eurofins Cerep)

[2] = target: T3, PI3 Kinase (p110β/p85α)(h) (Homo sapiens, UniProt P42338); experiment: Eurofins KinaseProfiler radiometric kinase assay; assay type: biochemical; conditions: read-out: PI3 Kinase (p110β/p85α)(h) % Residual activity
T3 construct: purchased Eurofins (Eurofins Cerep) KinaseProfiler

Aurora-A(h) = target: T4, Aurora-A(h) (Homo sapiens, UniProt O14965); experiment: Eurofins KinaseProfiler radiometric kinase assay; assay type: biochemical; conditions: read-out: Aurora-A(h) % Residual activity
T4 construct: purchased Eurofins KinaseProfiler (Eurofins Cerep)

PKBα(h) = target: T5, PKBα(h) (Homo sapiens, UniProt P31749); experiment: Eurofins KinaseProfiler radiometric kinase assay; assay type: biochemical; conditions: read-out: PKBα(h) % Residual activity
T5 construct: purchased Eurofins KinaseProfiler (Eurofins Cerep)

PAK2(h) = target: T6, PAK2(h) (Homo sapiens, UniProt Q13177); experiment: Eurofins KinaseProfiler radiometric kinase assay; assay type: biochemical; conditions: read-out: PAK2(h) % Residual activity
T6 construct: purchased Eurofins KinaseProfiler (Eurofins Cerep)

SRPK1(h) = target: T7, SRPK1(h) (Homo sapiens, UniProt Q96SB4); experiment: Eurofins KinaseProfiler radiometric kinase assay; assay type: biochemical; conditions: read-out: SRPK1(h) % Residual activity
T7 construct: purchased Eurofins (Eurofins Cerep) KinaseProfiler

PKG1α(h) = target: T8, PKG1α(h) (Homo sapiens, UniProt Q13976); experiment: Eurofins KinaseProfiler radiometric kinase assay; assay type: biochemical; conditions: read-out: PKG1α(h) % Residual activity
T8 construct: purchased Eurofins KinaseProfiler (Eurofins Cerep)

Lyn(h) = target: T9, Lyn(h) (Homo sapiens, UniProt P07948); experiment: Eurofins KinaseProfiler radiometric kinase assay; assay type: biochemical; conditions: for Lyn inhibition: 10 µM; for remaining activity at 10 µM: read-out: Lyn(h) % Residual activity
T9 construct: purchased Eurofins KinaseProfiler (Eurofins Cerep)
T9 sequence (P07948 whole entry): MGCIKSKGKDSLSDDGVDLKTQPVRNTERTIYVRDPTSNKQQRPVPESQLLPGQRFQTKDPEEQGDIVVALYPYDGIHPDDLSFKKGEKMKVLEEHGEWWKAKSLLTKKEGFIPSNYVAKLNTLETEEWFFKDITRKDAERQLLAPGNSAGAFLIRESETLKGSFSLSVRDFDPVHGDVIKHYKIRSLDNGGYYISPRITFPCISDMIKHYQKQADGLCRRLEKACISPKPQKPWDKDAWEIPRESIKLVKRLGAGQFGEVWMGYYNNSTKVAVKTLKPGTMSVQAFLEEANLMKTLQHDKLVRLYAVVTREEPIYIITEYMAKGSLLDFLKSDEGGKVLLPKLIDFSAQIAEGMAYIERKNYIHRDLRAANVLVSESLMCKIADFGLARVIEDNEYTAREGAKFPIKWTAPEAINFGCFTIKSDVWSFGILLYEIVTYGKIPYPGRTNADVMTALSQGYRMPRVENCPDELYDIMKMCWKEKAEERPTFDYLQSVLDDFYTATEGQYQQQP

[3] = tested on: immortalized murine microglia N9; experiment: Immunomodulation in LPS-treated N9 microglia, Western blot of iNOS and TREM2; conditions: 2.5 and 5 μM; 100 ng/mL LPS, 24 h
Description: To gain a conclusive answer on the potential role of these kinase inhibitors in counteracting neuroinflammatory processes, after the verified induced astrocytic polarization, the ability of selected compounds to modulate inflammatory response was analyzed by favoring the immunomodulatory switch from neurotoxic M1 phenotype of microglia to phagocytic and neuroprotective M2 phenotype, evaluating inducible nitric oxide synthase (iNOS) and TREM2 as M1 and M2 markers (Figure ).
The microglial phenotype was evaluated through Western blot analysis of the pro-inflammatory iNOS and anti-inflammatory-TREM2 markers.

ROCK-I(h) = target: T10, ROCK-I(h) (Homo sapiens, UniProt Q13464); experiment: Eurofins KinaseProfiler radiometric kinase assay; assay type: biochemical; conditions: read-out: ROCK-I(h) % Residual activity
T10 construct: purchased Eurofins KinaseProfiler (Eurofins Cerep)

MAPKAP-K2(h) = target: T11, MAPKAP-K2(h) (Homo sapiens, UniProt P49137); experiment: Eurofins KinaseProfiler radiometric kinase assay; assay type: biochemical; conditions: read-out: MAPKAP-K2(h) % Residual activity
T11 construct: purchased Eurofins KinaseProfiler (Eurofins Cerep)

NEK2(h) = target: T12, NEK2(h) (Homo sapiens, UniProt P51955); experiment: Eurofins KinaseProfiler radiometric kinase assay; assay type: biochemical; conditions: read-out: NEK2(h) % Residual activity
T12 construct: purchased Eurofins KinaseProfiler (Eurofins Cerep)

p70S6K(h) = target: T13, p70S6K(h) (Homo sapiens, UniProt P23443); experiment: Eurofins KinaseProfiler radiometric kinase assay; assay type: biochemical; conditions: read-out: p70S6K(h) % Residual activity
T13 construct: purchased Eurofins KinaseProfiler (Eurofins Cerep)

c-RAF(h) = target: T14, c-RAF(h) (Homo sapiens, UniProt P04049); experiment: Eurofins KinaseProfiler radiometric kinase assay; assay type: biochemical; conditions: read-out: c-RAF(h) % Residual activity
T14 construct: purchased Eurofins KinaseProfiler (Eurofins Cerep)

CDK7/cyclinH/MAT1(h) = target: T15, CDK7/cyclinH/MAT1(h) (Homo sapiens, UniProt P50613); experiment: Eurofins KinaseProfiler radiometric kinase assay; assay type: biochemical; conditions: read-out: CDK7/cyclinH/MAT1(h) % Residual activity
T15 construct: purchased Eurofins KinaseProfiler (Eurofins Cerep)

MSK2(h) = target: T16, MSK2(h) (Homo sapiens, UniProt O75676); experiment: Eurofins KinaseProfiler radiometric kinase assay; assay type: biochemical; conditions: for remaining activity at 10 µM: read-out: MSK2(h) % Residual activity
T16 construct: purchased Eurofins KinaseProfiler (Eurofins Cerep)
T16 sequence (O75676 whole entry): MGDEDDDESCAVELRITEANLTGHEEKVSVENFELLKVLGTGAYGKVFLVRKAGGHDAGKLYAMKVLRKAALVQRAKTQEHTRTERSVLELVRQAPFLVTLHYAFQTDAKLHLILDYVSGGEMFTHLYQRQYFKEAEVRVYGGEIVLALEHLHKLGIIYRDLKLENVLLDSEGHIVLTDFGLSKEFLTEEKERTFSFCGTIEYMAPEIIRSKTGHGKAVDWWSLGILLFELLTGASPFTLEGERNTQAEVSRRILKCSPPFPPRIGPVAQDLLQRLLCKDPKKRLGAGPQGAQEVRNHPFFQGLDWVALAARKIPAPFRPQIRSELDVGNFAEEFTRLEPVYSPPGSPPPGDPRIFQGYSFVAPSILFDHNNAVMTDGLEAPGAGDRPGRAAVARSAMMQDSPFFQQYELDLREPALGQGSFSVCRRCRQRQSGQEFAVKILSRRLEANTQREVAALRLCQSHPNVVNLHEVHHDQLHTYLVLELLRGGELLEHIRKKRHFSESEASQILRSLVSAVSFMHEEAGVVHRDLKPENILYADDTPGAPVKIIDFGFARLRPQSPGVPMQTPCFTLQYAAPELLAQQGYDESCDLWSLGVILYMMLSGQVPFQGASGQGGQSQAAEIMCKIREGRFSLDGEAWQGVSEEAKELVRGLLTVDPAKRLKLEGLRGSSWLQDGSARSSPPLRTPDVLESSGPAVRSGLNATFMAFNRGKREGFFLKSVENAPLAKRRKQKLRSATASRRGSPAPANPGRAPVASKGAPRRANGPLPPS

ASK1(h) = target: T17, ASK1(h) (Homo sapiens, UniProt Q99683); experiment: Eurofins KinaseProfiler radiometric kinase assay; assay type: biochemical; conditions: read-out: ASK1(h) % Residual activity
T17 construct: purchased Eurofins KinaseProfiler (Eurofins Cerep)

PDGFRβ(h) = target: T18, PDGFRβ(h) (Homo sapiens, UniProt P09619); experiment: Eurofins KinaseProfiler radiometric kinase assay; assay type: biochemical; conditions: read-out: PDGFRβ(h) % Residual activity
T18 construct: purchased Eurofins KinaseProfiler (Eurofins Cerep)
T18 sequence (P09619 33-1106): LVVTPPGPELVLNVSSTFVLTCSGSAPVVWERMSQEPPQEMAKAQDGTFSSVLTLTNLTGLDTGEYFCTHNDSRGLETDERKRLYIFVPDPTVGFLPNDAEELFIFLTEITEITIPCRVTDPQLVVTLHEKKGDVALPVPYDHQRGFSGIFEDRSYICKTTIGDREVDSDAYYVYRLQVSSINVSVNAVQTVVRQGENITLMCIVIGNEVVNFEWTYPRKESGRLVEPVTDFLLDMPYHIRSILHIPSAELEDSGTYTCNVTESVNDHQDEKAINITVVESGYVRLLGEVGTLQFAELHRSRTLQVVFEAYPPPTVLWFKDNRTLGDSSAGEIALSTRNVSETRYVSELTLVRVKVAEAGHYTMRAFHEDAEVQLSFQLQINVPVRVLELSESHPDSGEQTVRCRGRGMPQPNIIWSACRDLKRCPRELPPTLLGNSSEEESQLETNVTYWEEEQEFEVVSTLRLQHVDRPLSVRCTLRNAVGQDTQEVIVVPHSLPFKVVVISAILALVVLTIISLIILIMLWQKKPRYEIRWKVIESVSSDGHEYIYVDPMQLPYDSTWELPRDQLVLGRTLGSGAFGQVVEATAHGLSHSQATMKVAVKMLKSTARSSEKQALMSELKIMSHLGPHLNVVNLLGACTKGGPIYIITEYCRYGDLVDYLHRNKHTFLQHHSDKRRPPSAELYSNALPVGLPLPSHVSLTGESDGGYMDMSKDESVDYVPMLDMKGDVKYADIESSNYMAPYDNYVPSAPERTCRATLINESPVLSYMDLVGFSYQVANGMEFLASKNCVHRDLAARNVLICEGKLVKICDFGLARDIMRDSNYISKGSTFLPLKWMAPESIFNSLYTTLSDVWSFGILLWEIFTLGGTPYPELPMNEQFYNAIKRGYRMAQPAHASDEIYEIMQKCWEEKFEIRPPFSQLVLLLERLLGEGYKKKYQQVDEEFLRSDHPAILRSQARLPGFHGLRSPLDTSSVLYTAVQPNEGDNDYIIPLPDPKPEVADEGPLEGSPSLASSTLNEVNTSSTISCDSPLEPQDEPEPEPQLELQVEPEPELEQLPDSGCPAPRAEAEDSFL

CHK1(h) = target: T19, CHK1(h) (Homo sapiens, UniProt O14757); experiment: Eurofins KinaseProfiler radiometric kinase assay; assay type: biochemical; conditions: read-out: CHK1(h) % Residual activity
T19 construct: purchased Eurofins KinaseProfiler (Eurofins Cerep)

PI3 Kinase (p120γ)(h) = target: T20, PI3 Kinase (p120γ)(h) (Homo sapiens, UniProt P48736); experiment: Eurofins KinaseProfiler radiometric kinase assay; assay type: biochemical; conditions: read-out: PI3 Kinase (p120γ)(h) % Residual activity
T20 construct: purchased Eurofins (Eurofins Cerep) KinaseProfiler

PKCθ(h) = target: T21, PKCθ(h) (Homo sapiens, UniProt Q04759); experiment: Eurofins KinaseProfiler radiometric kinase assay; assay type: biochemical; conditions: read-out: PKCθ(h) % Residual activity
T21 construct: purchased Eurofins KinaseProfiler (Eurofins Cerep)

KDR(h) = target: T22, KDR(h) (Homo sapiens, UniProt P35968); experiment: Eurofins KinaseProfiler radiometric kinase assay; assay type: biochemical; conditions: read-out: KDR(h) % Residual activity
T22 construct: purchased Eurofins KinaseProfiler (Eurofins Cerep)

PRAK(h) = target: T23, PRAK(h) (Homo sapiens, UniProt Q8IW41); experiment: Eurofins KinaseProfiler radiometric kinase assay; assay type: biochemical; conditions: read-out: PRAK(h) % Residual activity
T23 construct: purchased Eurofins KinaseProfiler (Eurofins Cerep)

CK1γ1(h) = target: T24, CK1γ1(h) (Homo sapiens, UniProt Q9HCP0); experiment: Eurofins KinaseProfiler radiometric kinase assay; assay type: biochemical; conditions: read-out: CK1γ1(h) % Residual activity
T24 construct: purchased Eurofins KinaseProfiler (Eurofins Cerep)

EphA5(h) = target: T25, EphA5(h) (Homo sapiens, UniProt P54756); experiment: Eurofins KinaseProfiler radiometric kinase assay; assay type: biochemical; conditions: read-out: EphA5(h) % Residual activity
T25 construct: purchased Eurofins KinaseProfiler (Eurofins Cerep)

ALK(h) = target: T26, ALK(h) (Homo sapiens, UniProt Q9UM73); experiment: Eurofins KinaseProfiler radiometric kinase assay; assay type: biochemical; conditions: read-out: ALK(h) % Residual activity
T26 construct: purchased Eurofins KinaseProfiler (Eurofins Cerep)
T26 sequence (Q9UM73 19-1620): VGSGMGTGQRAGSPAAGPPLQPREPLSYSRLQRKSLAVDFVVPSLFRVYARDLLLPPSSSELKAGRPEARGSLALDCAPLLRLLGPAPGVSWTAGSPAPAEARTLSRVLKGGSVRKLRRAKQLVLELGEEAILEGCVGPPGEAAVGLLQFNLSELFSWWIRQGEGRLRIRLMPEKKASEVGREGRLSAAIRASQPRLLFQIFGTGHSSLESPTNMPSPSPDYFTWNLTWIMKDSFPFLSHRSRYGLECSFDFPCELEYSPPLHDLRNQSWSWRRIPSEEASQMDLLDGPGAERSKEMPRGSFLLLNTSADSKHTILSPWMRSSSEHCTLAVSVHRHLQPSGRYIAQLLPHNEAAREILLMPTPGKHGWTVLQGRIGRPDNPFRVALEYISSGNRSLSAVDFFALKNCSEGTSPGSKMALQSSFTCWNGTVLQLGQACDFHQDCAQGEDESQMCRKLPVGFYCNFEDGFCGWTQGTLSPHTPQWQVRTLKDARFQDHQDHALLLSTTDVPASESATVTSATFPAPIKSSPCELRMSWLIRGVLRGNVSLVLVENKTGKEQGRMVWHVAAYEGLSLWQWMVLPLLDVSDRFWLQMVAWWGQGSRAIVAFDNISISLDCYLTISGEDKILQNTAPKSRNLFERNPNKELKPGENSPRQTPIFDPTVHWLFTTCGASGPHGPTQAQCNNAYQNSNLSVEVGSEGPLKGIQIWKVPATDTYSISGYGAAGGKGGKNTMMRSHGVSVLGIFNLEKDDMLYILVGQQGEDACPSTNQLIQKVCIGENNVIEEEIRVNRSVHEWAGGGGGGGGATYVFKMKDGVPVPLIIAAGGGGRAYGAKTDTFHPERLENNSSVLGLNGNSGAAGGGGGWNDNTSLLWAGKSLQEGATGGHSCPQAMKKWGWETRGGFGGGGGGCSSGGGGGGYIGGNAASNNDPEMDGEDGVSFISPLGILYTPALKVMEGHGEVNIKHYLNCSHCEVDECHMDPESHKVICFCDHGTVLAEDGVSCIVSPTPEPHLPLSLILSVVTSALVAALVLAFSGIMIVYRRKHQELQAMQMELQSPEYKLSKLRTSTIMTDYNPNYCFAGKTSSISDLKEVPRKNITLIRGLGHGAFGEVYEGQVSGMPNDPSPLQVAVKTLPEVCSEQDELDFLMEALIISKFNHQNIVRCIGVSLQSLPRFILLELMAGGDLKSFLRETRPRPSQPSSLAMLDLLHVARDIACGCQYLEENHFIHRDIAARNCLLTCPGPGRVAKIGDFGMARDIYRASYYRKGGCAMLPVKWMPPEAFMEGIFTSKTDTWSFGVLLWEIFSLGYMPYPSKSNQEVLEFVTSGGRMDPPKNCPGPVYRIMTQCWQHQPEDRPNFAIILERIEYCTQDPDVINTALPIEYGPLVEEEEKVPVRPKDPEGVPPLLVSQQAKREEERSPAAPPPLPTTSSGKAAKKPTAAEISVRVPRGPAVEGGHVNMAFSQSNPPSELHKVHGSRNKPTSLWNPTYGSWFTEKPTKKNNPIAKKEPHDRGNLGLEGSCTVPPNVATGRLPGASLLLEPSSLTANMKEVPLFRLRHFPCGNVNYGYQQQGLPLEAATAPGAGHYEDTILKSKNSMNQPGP

MLK1(h) = target: T27, MLK1(h) (Homo sapiens, UniProt P80192); experiment: Eurofins KinaseProfiler radiometric kinase assay; assay type: biochemical; conditions: for remaining activity at 10 µM: read-out: MLK1(h) % Residual activity
T27 construct: purchased Eurofins KinaseProfiler (Eurofins Cerep)
T27 sequence (P80192 whole entry): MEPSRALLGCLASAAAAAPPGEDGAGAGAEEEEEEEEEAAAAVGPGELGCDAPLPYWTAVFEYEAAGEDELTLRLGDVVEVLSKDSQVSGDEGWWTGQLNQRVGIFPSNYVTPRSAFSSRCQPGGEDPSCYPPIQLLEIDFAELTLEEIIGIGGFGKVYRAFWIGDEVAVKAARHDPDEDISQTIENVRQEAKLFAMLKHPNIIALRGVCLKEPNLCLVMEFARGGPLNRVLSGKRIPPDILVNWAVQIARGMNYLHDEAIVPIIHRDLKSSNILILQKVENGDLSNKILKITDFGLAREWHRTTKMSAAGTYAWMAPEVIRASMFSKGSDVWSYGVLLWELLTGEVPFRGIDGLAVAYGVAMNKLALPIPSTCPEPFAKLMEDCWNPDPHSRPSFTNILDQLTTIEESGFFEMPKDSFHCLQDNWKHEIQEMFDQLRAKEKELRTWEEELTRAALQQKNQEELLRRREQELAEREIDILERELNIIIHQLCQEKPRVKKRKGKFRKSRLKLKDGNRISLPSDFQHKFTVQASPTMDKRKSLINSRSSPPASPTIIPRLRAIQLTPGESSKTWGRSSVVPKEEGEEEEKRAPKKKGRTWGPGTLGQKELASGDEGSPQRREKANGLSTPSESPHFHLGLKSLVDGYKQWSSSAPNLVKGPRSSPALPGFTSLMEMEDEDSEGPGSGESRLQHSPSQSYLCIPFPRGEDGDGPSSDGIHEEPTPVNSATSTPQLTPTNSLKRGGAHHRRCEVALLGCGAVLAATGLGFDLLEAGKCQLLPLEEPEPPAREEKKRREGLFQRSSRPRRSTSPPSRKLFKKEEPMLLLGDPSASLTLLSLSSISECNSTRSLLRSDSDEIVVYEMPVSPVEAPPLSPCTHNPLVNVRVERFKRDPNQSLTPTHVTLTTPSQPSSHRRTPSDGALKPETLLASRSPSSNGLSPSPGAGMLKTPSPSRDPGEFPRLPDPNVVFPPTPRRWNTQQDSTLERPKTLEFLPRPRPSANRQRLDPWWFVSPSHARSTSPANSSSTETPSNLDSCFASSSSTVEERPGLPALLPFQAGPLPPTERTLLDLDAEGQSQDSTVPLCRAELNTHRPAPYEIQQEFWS

remaining activity at 10 µM [1] [%]	remaining activity at 10 µM (IRAK4(h)) [%]	remaining activity at 10 µM [2] [%]	remaining activity at 10 µM (Aurora-A(h)) [%]	remaining activity at 10 µM (PKBα(h)) [%]	remaining activity at 10 µM (PAK2(h)) [%]	remaining activity at 10 µM (SRPK1(h)) [%]	remaining activity at 10 µM (PKG1α(h)) [%]	Lyn inhibition (Lyn(h))	remaining activity at 10 µM (Lyn(h)) [%]	remaining activity at 10 µM (ROCK-I(h)) [%]	remaining activity at 10 µM (MAPKAP-K2(h)) [%]	remaining activity at 10 µM (NEK2(h)) [%]	remaining activity at 10 µM (p70S6K(h)) [%]	remaining activity at 10 µM (c-RAF(h)) [%]	remaining activity at 10 µM (CDK7/cyclinH/MAT1(h)) [%]	remaining activity at 10 µM (MSK2(h)) [%]	remaining activity at 10 µM (ASK1(h)) [%]	Compound	TREM2 expression (M2 marker) vs LPS [3]	iNOS expression (M1 marker) vs LPS [3]	further results
97	52	89	11	104	75	85	80	completely inhibited	1	93	33	56	50	52	55	59	72	Br.Cc1sc(NCc2ccccc2)nc1-c1c[nH]c2ncc(Br)cc12 [Compound 41, N-Benzyl-4-(5-bromo-1H-pyrrolo[2,3-b]pyridin-3-yl)-5-methylthiazol-2-amine Hydrobromide]	no significant variations	notably decreased the M1 marker at both tested concentrations	remaining activity at 10 µM (PDGFRβ(h)): 95%; remaining activity at 10 µM (CHK1(h)): 111%; remaining activity at 10 µM (PI3 Kinase (p120γ)(h)): 80%; remaining activity at 10 µM (PKCθ(h)): 98%; remaining activity at 10 µM (KDR(h)): 16%; remaining activity at 10 µM (PRAK(h)): 64%; remaining activity at 10 µM (CK1γ1(h)): 93%; remaining activity at 10 µM (EphA5(h)): 93%; remaining activity at 10 µM (ALK(h)): 38%; inhibition at 10 µM (MLK1(h)): > 90%; remaining activity at 10 µM (MLK1(h)): 8%
96	31	94	27	103	72	96	40	completely inhibited	1	76	45	84	14	34	62	1	97	Br.Cc1sc(NCc2ccnc(Cl)c2)nc1-c1c[nH]c2ncccc12 [Compound 43, N-((2-Chloropyridin-4-yl)methyl)-5-methyl-4-(1H-pyrrolo[2,3-b]pyridin-3-yl)thiazol-2-amine Hydrobromide]	no significant variations	significantly reduced the M1 marker only at the highest concentration	inhibition at 10 µM (MSK2(h)): > 90%; remaining activity at 10 µM (PDGFRβ(h)): 93%; remaining activity at 10 µM (CHK1(h)): 112%; remaining activity at 10 µM (PI3 Kinase (p120γ)(h)): 94%; remaining activity at 10 µM (PKCθ(h)): 23%; remaining activity at 10 µM (KDR(h)): 15%; remaining activity at 10 µM (PRAK(h)): 97%; remaining activity at 10 µM (CK1γ1(h)): 77%; remaining activity at 10 µM (EphA5(h)): 103%; remaining activity at 10 µM (ALK(h)): 61%; remaining activity at 10 µM (MLK1(h)): 12%
